Literature values in patent US5858994A, “Carbohydrate conjugates as inhibitors of cell adhesion” (priority 1994, dated 1999).

Test system: selectin receptors
Conditions: compared with sialyl-Lewis X; cited from earlier work

## CC(=O)N[C@@H]1[C@@H](O[C@@H]2O[C@H](CO)[C@H](O)[C@H](O[C@]3(C(=O)O)C[C@H](O)[C@@H](NC(C)=O)[C@H]([C@H](O)[C@H](O)CO)O3)[C@H]2O)[C@H](O[C@@H]2O[C@@H](C)[C@@H](O)[C@@H](O)[C@@H]2O)[C@@H](CO)O[C@H]1O [sialyl-Lewis A]
  binding to selectin receptors relative to the X type: comparable affinity
